For experiment [1], the target named is DNA dC->dU-editing enzyme APOBEC-3G (Homo sapiens, UniProt Q9HC16). The class given is functional.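 Also: Dose-response counterscreen measuring inhibition of APOBEC3G DNA deaminase activity, run while confirming APOBEC3A inhibitors.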
Experiment [2] addresses DNA dC->dU-editing enzyme APOBEC-3A (Homo sapiens, UniProt P31941). The experiment in a line: Dose Response confirmation of small molecule APOBEC3A DNA Deaminase Inhibitors via a fluorescence-based single-stranded DNA deaminase assay. [Related pubchem assays (depositor defined):AID493011, AID493024]. It counts as functional.
Experiment [3] concerns the target T1, Ubiquitin-conjugating enzyme E2 N (Homo sapiens, UniProt P61088).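 Also: Dose-response confirmation in a TR-FRET assay detecting UBC13-driven polyubiquitin chain formation, inhibition measured.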
T1 sequence (P61088 whole entry): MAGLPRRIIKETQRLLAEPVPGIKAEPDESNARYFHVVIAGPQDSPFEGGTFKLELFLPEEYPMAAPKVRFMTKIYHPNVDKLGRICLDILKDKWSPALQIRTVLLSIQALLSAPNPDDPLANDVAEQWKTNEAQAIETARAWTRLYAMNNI
The class given is functional.

Experiment [4] in a line: Vero E6 cell cytotoxicity, dose response, cytotoxicity control for non-replicating M. tuberculosis project, secondary assay (AID 492998). To be noted: Vero C1008. It counts as functional, VeroE6.
The target in experiment [5] is T2, Microphthalmia-associated transcription factor (Homo sapiens, UniProt O75030).
T2 sequence (O75030 whole entry): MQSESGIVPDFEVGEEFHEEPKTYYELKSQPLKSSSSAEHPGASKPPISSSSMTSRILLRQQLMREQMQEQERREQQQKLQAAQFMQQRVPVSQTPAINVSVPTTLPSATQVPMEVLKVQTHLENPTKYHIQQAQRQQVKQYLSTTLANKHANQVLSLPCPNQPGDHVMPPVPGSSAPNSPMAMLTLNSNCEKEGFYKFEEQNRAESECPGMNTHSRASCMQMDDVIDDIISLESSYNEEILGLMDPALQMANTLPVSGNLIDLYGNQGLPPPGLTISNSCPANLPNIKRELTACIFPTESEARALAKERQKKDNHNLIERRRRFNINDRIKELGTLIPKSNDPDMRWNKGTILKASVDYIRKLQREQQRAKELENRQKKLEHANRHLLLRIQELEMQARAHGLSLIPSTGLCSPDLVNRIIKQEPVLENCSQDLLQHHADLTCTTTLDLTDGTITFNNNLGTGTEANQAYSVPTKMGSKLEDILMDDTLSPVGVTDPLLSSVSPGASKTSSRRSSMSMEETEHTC
The experiment in a line: reducers of TRPM1 reporter luminescence, concentration series – cell-based, SK-MEL-5, cherry-picked, set 3, MITF inhibitor project, dose response (AID 493073).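 Also: SK-MEL-5 melanoma cells with luciferase driven by the MITF target TRPM1 promoter.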 It counts as functional.

A short description of experiment [6]: cytotoxicity toward MDA-MB-231 breast cancer cells – cell-based, CellTiter-Glo luminescence, cherry-pick, cytotoxicity control for RAD54 inhibitor project, dose response (AID 651692). The class given is functional. Background: In ATP-based viability assays light output follows the ATP content of the culture.
Experiment [7] in a line: Counterscreen for activators of the function of SWI/SNF related, matrix associated, actin dependent regulator of chromatin, subfamily a, member 2 (SMARCA2, BRM): Luminescence-based cell-based high throughput dose response assay to identify non-selective compounds using the VP16 reporter assay. The class given is functional. (Counterscreens check selectivity or assay interference.)

The target in experiment [8] is SWI/SNF-related matrix-associated actin-dependent regulator of chromatin subfamily A member 2 (Homo sapiens, UniProt P51531). Briefly: Luminescence-based cell-based high throughput dose response assay to identify activators of the function of SWI/SNF related, matrix associated, actin dependent regulator of chromatin, subfamily a, member 2 (SMARCA2, BRM). The class given is functional.
SWI/SNF-related matrix-associated actin-dependent regulator of chromatin subfamily A member 2, sequence (P51531 whole entry): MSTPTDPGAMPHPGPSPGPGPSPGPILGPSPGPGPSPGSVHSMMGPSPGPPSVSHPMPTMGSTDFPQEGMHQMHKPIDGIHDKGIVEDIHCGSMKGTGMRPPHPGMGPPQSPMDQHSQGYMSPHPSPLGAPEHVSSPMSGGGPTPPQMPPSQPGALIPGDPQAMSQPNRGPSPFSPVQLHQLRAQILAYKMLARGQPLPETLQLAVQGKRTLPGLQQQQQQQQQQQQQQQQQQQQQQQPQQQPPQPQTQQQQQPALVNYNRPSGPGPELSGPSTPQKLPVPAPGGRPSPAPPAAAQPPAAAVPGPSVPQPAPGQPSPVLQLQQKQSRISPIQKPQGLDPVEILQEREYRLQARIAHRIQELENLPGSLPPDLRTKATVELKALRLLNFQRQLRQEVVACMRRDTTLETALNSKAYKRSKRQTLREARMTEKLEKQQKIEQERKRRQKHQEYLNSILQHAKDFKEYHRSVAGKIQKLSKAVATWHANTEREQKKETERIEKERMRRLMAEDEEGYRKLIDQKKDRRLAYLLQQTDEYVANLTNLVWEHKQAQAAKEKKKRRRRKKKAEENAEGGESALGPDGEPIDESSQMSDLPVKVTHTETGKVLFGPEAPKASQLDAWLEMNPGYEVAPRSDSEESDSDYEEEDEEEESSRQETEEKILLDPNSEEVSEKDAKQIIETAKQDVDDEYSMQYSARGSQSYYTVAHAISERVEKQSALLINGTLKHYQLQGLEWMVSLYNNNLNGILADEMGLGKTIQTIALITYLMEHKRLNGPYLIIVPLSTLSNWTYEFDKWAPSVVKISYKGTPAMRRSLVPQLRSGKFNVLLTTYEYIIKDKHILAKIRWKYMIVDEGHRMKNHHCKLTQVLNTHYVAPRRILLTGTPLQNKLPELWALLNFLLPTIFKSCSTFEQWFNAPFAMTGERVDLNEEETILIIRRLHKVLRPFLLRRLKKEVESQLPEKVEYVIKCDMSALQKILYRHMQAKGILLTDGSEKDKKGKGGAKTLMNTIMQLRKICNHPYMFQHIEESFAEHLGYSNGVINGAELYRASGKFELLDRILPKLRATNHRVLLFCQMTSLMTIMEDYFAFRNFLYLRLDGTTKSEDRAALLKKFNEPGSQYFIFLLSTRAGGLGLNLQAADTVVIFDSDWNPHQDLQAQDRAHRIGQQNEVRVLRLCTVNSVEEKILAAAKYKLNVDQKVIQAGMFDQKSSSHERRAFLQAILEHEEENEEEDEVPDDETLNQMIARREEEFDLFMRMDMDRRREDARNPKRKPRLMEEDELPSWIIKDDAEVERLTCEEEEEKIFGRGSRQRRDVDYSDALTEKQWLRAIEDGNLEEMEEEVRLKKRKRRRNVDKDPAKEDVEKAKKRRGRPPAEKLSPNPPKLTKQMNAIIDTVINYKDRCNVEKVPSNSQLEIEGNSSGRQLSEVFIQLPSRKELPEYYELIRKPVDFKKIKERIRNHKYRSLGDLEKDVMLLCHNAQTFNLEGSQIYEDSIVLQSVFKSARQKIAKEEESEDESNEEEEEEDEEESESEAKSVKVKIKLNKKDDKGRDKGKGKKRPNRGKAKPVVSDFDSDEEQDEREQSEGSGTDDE

The test system of another experiment is A-375. Briefly: proliferation inhibition in MITF-low A375 cells – cell-based, cherry-pick samples, set 2, counter-screen for MITF modulator project, dose response (AID 540335). As to conditions: Homo sapiens. It counts as functional.
A short description of experiment [9]: HepG2 cell cytotoxicity, dose response, cytotoxicity control for non-replicating M. tuberculosis project (AID 489018). The class given is functional. As to conditions: Mycobacterium tuberculosis.
Experiment [10] can be described thus: THP-1 cell cytotoxicity, dose response, cytotoxicity control for non-replicating M. tuberculosis project (AID 489025). The class given is functional.
Experiment [11] deals with T3, DNA repair and recombination protein RAD54-like (Homo sapiens, UniProt Q92698).
T3 sequence (Q92698 whole entry): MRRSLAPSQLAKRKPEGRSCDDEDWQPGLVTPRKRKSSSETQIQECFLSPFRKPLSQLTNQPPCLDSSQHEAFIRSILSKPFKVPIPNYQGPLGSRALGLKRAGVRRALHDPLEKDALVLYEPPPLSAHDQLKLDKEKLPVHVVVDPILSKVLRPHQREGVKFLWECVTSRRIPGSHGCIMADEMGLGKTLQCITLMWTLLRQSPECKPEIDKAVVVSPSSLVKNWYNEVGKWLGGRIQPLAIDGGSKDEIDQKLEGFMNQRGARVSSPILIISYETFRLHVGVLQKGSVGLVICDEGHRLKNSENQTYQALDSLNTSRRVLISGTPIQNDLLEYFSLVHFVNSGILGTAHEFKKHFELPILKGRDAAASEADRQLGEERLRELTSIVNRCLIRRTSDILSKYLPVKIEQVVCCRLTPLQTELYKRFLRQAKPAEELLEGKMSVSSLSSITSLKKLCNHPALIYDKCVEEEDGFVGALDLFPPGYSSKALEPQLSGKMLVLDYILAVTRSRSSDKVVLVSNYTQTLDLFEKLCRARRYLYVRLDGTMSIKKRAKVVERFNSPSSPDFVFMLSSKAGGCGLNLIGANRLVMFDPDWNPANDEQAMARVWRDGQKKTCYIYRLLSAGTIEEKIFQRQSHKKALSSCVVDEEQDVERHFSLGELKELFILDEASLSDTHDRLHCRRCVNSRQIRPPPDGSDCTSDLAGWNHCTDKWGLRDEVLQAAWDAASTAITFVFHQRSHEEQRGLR
The experiment in a line: RAD54 Holliday junction migration blockers – biochemical, fluorescence, cherry-picked samples, dose series, confirmation (AID 651657). It counts as functional.

Another experiment is described as follows: cells. The class given is functional.
For experiment [12], the target named is T4, Replicative DNA helicase DnaB (Mycobacterium tuberculosis, UniProt P9WMR3).
T4 sequence (P9WMR3 whole entry): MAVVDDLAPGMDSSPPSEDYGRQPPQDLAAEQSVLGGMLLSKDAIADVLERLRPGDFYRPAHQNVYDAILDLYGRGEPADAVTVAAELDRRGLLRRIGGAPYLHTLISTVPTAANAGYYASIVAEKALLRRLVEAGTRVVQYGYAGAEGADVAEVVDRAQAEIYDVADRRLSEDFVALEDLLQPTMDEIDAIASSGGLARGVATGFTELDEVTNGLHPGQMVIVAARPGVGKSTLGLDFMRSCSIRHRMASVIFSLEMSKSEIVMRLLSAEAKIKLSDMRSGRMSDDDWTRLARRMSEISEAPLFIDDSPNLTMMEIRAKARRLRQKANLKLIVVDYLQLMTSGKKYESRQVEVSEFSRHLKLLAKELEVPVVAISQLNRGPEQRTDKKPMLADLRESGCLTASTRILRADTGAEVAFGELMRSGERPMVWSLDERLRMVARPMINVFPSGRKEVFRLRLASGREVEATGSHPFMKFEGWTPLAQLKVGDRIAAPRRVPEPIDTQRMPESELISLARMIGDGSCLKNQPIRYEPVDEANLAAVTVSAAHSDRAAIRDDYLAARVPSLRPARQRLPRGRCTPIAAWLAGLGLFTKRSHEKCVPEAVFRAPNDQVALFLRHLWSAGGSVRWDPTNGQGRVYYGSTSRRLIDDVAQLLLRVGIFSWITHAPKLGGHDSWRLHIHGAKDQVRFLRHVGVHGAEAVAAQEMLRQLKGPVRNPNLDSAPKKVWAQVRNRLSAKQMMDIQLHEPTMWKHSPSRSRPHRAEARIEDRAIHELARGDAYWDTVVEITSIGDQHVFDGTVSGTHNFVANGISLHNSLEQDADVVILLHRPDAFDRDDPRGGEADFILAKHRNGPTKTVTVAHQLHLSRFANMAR
Briefly: DnaB intein splicing inhibitors, dose response, biochemical, cell-free fluorescence (AID 449749). It counts as functional.

Experiment [13] has as its target DNA damage-inducible transcript 3 protein (Mus musculus, UniProt P35639). It counts as functional, Cricetulus griseus.
The next experiment deals with Prothrombin (Homo sapiens, UniProt P00734). The experiment in a line: Thrombin 1536 HTS Dose Response Confirmation. [Related pubchem assays: 1046 (Thrombin 1536 HTS; hits were confirmed in this assay)]. It counts as functional.
The next experiment addresses Genome polyprotein (dengue virus type 2, UniProt P29990). The experiment in a line: flavivirus cap methylation enzyme inhibition – biochemical, confirmation dose response, primary screen (AID 588689). The class given is functional.
Experiment [14] concerns the target T5, Fatty acid synthase (Homo sapiens, UniProt P49327). Briefly: inhibition of human FAS-TE enzyme activity – biochemical, endpoint fluorescence intensity, uHTS hits, dose response (AID 624327).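 Also: fluorescence from hydrolysis of an O-methyl fluorescein acyl ester substrate by the enzyme.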 The class given is functional.
Experiment [15] concerns the target T5, Fatty acid synthase. The experiment in a line: inhibition of human FAS-TE enzyme activity – biochemical, kinetic fluorescence intensity, dose response (AID 624326).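 Also: rate of fluorescence rise from hydrolysis of a fluorogenic O-methyl fluorescein ester substrate.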 The class given is functional.
The target of the next experiment is T6, Protein RecA (Mycobacterium tuberculosis, UniProt P9WHJ3).
T6 sequence (P9WHJ3 whole entry): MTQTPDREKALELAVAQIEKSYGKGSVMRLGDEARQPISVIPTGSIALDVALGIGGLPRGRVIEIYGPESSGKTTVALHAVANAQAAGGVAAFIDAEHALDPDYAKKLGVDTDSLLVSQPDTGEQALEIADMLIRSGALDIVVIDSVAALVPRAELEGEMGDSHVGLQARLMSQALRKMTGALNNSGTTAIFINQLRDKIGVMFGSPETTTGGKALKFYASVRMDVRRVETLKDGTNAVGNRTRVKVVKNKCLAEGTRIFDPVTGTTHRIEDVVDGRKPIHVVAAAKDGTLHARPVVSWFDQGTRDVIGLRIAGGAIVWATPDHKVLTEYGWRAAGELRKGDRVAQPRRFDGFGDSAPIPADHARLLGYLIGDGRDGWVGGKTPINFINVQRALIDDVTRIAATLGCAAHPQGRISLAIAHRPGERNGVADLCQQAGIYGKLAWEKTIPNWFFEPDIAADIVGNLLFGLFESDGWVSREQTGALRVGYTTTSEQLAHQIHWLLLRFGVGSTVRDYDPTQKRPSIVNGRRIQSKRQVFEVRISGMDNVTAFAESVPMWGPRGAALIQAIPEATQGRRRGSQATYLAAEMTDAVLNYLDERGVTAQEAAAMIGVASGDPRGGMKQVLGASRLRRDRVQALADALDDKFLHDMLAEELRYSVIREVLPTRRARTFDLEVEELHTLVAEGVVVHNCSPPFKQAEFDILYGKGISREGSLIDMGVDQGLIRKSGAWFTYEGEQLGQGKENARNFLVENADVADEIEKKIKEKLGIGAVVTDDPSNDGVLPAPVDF
The experiment in a line: Fluorescence Cell-Free Homogeneous Dose Retest to Identify Inhibitors of RecA-Intein Splicing Activity. [Related pubchem assays (depositor defined):AID2097, AID2223, AID489010, AID492950]. It counts as functional.

Experiment [16] deals with ADP-ribosylation factor GTPase-activating protein 1 (Rattus norvegicus, UniProt Q62848). Briefly: Fluorescence polarization-based biochemical high throughput dose response screening assay to identify inhibitors of ADP-ribosylation factor GTPase activating protein 1 (ARFGAP1). The class given is functional. (Polarisation of emitted light reports the rotation of a fluorescent probe.)

Experiment [17] addresses Arf-GAP with SH3 domain, ANK repeat and PH domain-containing protein 1 (Homo sapiens, UniProt Q9ULH1). The class given is functional.
In the next experiment the target is X-box-binding protein 1 (Homo sapiens, UniProt P17861). The class given is functional, Cricetulus griseus.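 Also: confirmatory dose-response counter-screen serving a CHOP assay.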

The source made the active and inactive calls. Bounds are passed on as bounds.

Usually IC50 stands for the midpoint of a concentration-inhibition curve. As usually defined, the CC50 is the concentration that lowers cell viability or growth by half. By AC50 is commonly meant the concentration giving half of the maximal activity seen. As usually defined, the EC50 is the concentration that produces a half-maximal response.

T5 sequence (P49327 whole entry): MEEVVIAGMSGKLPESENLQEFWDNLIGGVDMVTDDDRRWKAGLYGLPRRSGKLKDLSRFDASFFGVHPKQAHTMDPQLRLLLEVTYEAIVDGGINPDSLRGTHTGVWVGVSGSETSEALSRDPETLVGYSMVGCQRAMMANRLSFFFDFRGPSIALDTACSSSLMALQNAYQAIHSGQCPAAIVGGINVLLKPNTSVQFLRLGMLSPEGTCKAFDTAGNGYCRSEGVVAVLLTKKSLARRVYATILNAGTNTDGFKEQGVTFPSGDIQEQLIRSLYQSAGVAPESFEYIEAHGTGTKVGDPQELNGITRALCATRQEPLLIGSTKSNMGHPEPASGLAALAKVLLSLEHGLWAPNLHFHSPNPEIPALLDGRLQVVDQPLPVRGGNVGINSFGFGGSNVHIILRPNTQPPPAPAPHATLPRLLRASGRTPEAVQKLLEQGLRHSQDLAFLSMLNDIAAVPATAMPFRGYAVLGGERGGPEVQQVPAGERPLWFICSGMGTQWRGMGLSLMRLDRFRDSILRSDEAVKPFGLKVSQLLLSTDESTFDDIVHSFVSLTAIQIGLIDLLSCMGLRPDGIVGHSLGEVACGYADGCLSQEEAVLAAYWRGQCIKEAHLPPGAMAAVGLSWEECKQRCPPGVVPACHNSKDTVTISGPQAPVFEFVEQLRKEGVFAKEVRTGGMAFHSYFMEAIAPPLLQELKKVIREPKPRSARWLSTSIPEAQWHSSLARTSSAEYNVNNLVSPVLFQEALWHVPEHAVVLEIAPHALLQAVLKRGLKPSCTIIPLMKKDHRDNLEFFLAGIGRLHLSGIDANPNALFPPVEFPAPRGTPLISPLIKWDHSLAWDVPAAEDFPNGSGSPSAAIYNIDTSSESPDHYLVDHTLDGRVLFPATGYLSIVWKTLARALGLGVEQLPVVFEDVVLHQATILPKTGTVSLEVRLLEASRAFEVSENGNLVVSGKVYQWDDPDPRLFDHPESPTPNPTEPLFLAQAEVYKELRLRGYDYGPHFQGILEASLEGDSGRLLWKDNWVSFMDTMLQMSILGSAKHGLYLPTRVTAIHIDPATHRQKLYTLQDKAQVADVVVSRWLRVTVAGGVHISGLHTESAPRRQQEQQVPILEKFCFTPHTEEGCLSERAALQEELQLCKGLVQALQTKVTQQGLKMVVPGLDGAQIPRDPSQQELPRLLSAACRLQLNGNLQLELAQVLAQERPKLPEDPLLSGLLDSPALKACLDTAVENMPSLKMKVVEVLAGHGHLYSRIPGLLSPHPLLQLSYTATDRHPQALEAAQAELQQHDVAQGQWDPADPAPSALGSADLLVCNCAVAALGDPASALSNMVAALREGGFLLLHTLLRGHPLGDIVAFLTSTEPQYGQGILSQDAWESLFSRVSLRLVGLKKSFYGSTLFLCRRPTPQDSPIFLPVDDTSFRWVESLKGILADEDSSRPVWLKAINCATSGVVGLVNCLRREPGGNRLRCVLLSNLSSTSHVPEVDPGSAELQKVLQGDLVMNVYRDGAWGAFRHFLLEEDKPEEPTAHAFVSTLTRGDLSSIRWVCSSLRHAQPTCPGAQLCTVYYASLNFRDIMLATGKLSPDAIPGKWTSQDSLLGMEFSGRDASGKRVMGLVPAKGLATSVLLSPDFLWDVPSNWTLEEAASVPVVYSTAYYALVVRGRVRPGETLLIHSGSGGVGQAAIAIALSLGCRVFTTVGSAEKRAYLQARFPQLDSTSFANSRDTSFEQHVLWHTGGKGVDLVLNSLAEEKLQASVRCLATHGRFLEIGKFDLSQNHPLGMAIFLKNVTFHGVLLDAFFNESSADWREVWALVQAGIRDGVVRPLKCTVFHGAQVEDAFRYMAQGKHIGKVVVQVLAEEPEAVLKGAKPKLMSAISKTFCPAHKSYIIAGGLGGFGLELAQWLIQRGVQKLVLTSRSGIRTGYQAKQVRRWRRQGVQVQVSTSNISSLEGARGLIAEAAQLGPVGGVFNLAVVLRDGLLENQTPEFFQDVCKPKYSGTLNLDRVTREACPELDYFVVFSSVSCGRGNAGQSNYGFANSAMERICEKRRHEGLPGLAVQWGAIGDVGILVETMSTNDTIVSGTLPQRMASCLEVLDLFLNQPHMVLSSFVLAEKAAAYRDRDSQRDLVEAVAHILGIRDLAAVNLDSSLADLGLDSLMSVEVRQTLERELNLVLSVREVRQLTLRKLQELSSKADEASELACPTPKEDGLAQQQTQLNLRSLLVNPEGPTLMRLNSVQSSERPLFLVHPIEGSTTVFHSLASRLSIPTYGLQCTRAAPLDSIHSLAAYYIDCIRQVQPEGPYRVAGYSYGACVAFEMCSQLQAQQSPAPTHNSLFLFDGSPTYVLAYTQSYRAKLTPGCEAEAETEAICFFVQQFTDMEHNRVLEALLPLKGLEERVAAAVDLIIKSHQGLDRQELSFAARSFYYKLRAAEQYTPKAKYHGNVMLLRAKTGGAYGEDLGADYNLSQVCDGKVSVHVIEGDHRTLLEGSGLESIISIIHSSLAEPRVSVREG
DNA damage-inducible transcript 3 protein, sequence (P35639 whole entry): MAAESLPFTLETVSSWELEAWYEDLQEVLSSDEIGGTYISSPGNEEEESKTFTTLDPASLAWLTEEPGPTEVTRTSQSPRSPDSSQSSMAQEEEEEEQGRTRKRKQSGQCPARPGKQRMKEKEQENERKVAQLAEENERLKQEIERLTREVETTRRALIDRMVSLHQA
DNA dC->dU-editing enzyme APOBEC-3G, sequence (Q9HC16 whole entry): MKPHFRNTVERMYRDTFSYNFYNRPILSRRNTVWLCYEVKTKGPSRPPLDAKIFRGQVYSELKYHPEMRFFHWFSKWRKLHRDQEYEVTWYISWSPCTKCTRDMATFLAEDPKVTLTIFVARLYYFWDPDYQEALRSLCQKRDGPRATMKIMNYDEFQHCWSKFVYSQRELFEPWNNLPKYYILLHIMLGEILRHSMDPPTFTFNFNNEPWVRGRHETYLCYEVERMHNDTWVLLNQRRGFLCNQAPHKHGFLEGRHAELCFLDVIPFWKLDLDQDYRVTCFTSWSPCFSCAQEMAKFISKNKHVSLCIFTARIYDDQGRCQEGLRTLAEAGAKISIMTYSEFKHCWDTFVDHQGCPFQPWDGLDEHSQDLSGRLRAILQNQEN
DNA dC->dU-editing enzyme APOBEC-3A, sequence (P31941 whole entry): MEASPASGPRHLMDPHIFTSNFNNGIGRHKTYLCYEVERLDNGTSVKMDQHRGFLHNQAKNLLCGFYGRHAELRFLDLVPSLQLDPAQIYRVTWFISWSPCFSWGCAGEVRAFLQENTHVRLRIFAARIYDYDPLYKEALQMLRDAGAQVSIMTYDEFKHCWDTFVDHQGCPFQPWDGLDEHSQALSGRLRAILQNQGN

In the case of `CC(=O)Nc1nc(CC(C)C)cc(-c2ccco2)c1C#N`, the concentration for half-maximal inhibition (IC50) was 5.76 µM (active) in experiment [1] and 4.18 µM (active) in [2].
As to `CCOC(=O)c1c(NC(C)=O)sc2c(OCC(O)CNC(C)(C)C)c(Br)ccc12` (stereo unspecified), the figures for the IC50 (in experiment [3]; in the experiment “cells”) were > 20 µM (inactive) and 10.2 µM (active), respectively. In addition, the CC50 in [4] is 7.28 µM (active); in [9], 11.9 µM (active); in [10] it was 12.5 µM (active). Also, the AC50 is 7.72 µM (active) in experiment [5], 21 µM (active) in [6], 19.9 µM (active) in the experiment with A-375 and 8.96 µM (active) in experiment [11]. For the same molecule, the EC50 in experiment [7] and in experiment [8] was > 91.2 µM (inactive) each time.
Take `Cc1cc(C)c(S(=O)(=O)ON2C(=O)c3ccccc3C2=O)cc1C`: the AC50 in experiment [12] was > 380 µM (inactive). Also, the “Absolute IC50 (CHOP)” value in [13] is 10 µM. Moreover, the IC50 was 2.57 µM (active) on Prothrombin, 76.2 µM (active) at Genome polyprotein, 0.744 µM (active) at Fatty acid synthase [14] and 3.91 µM (active) on Fatty acid synthase [15]. Further, the EC50 at Protein RecA was 10.2 µM (active).
For `Cn1c(=O)n(CCOc2ccc(Cl)cc2Cl)c2ccccc21`, the IC50 in experiment [16] and in experiment [17] was 18.4 µM (inactive) each time. In addition, in experiment [13], the “Absolute IC50 (CHOP)” value was found to be 10 µM. Also, the “Absolute IC50 (XBP1)” value on X-box-binding protein 1 is 10 µM.
As to `O=[N+]([O-])c1ccccc1/C=N/NC1=NCCN1`, the IC50 was 6.95 µM (active) in experiment [1] and 5.96 µM (active) in experiment [2].

Values taken from ChEMBL document CHEMBL1201862, “PubChem BioAssay data set” (2004).
